Data taken from patent US20210078958A1, “QUINAZOLINE DERIVATIVE AND USE THEREOF” (MEDSHINE DISCOVERY INC., priority 2017, published 2021).
Like-named read-outs stand apart in the source and are kept apart here.

Assays:
[1] = molecular target: T1, CYP1A2 (Homo sapiens, UniProt P05177); test: inhibition of CYP enzyme activity in human liver microsome, CYP1A2; assay type: in vitro ADME
T1 construct: in the assay of CYP enzyme activity in human liver microsome; from tissue; host or cells: human liver microsome
T1 sequence (P05177 1-516): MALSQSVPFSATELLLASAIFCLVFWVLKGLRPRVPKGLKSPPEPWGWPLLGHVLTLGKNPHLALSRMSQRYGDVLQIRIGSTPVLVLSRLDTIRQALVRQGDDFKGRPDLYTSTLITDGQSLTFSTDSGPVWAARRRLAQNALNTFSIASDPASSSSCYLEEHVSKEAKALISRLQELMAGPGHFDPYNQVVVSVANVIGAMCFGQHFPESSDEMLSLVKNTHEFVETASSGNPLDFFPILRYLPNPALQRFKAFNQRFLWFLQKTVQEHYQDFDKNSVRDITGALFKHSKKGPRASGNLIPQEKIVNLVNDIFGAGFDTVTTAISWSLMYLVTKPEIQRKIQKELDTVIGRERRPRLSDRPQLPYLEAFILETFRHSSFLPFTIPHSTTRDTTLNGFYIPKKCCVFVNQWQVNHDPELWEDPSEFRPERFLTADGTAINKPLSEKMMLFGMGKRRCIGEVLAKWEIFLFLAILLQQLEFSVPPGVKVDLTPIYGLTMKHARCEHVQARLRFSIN
Source text: The results of the compounds disclosed herein and the reference compound Poziotinib in the assay of CYP enzyme activity in human liver microsome were shown in the following table (Table 8).

[2] = test system: subcutaneous xenograft tumor of human esophageal carcinoma OE21 cells; assay type: in vivo; details: 2/1.5 mg/kg; for Tumor volume (mm3) (Day 21): OE21 xenograft, Mean + SEM; for T/C (%) / TGI (%): day 21
Description: Purpose of the assay: to evaluate the in vivo efficacy of the compounds to be tested on subcutaneous xenograft tumor of human esophageal carcinoma OE21 cells in a BALB/c nude mouse model.
Animals of the assay: female BALB/c nude mice, 6-8 weeks old, weighing 17-23 grams; supplier: shanghai sippr bk laboratory animals Ltd.
Human esophageal carcinoma OE21 cells were cultured in monolayer in vitro. The culture conditions were RPMI-1640 medium plus 10% fetal bovine serum, 100 U/mL penicillin, 100 U/mL streptomycin and 2 mM glutamine, 37° C., 5% CO2. The passaging was performed by conventional digestion with trypsin-EDTA twice a week. When the cell saturation was 80%-90%, the cells were collected, counted and inoculated.
0.1 ml […] OE21 cells (PBS) were inoculated subcutaneously on the right back of each mouse. When the average tumor volume reached 112 mm^3, administration to each group was started.
The test compound was formulated into a 0.15 mg/mL to 0.3 mg/mL clear or suspension solution in the solvents of 10% NMP+10% ethylene glycol stearate+80% water. 6.4 Tumor measurement and assay index
The assay index is to investigate whether tumor growth is inhibited, delayed or cured. Tumor diameter was measured twice a week with vernier caliper. The calculation formula of tumor volume is: V=0.5a×b^2, wherein a and b represent the long and short diameters of tumor, respectively.
The antitumor efficacy of the compounds were evaluated by TGI (%) or relative tumor proliferation rate T/C (%). TGI (%) reflects the tumor growth inhibition rate. TGI (%) is calculated as follows: TGI (%)=[(1−(average tumor volume at the end of administration for a certain treatment group−average tumor volume at the beginning of administration for this treatment group))/(average tumor volume at the end of treatment for a solvent control group−average tumor volume at the beginning of administration for this solvent control group)]×100%.
Relative tumor proliferation rate T/C (%): the calculation formula is as follows: T/C (%)=average tumor volume at the end of administration for a certain treatment group/average tumor volume at the end of treatment for the solvent control group×100%.
Statistical analysis included the mean and standard error (SEM) of tumor volume at each time point in each group. One-way ANOVA was used for comparison among three or more groups. […] SPSS 17.0 was used for all data analysis. p<0.05 is considered a significant difference.

[3] = Assay Example 7: pharmacokinetics in mice; assay type: in vivo; details: mouse, female BALB/c mice, plasma, dose not given; for Tmax / half-life: oral; for AUC(0-t) / Cmax: oral plasma exposure
Description: Purpose of the assay: this assay aims to investigate in vivo plasma pharmacokinetics of the example compounds disclosed herein and the reference compound in female BALB/c mice after the single intravenous injection and intragastric administration thereof.
Animals of the assay: female BALB/c nude mice, 7-9 weeks old, weighted 17-23 grams; supplier: shanghai sippr bk laboratory animals Ltd.
Sample collection: at each time point, a 0.03 mL blood sample was collected from the saphenous vein of the test animal by puncture, and the actual blood collection time was recorded. All blood samples were added into commercial EDTA-K2 anticoagulation tubes with a specification of 1.5 mL (the supplier was Jiangsu KANGJIAN Medical Apparatus Co., Ltd.). Within half an hour after the blood sample was collected, the blood sample was centrifuged at 3000 g at 4° C. for 10 minutes, and the supernatant plasma was drawn, quickly placed in dry ice, and stored in a refrigerator at −80° C. for LC-MS/MS analysis.
Data analysis: Plasma concentrations were processed using a non-compartmental model of WinNonlin™ Version6.3 (Pharsight, MountainView, Calif.) pharmacokinetic software, and pharmacokinetic parameters Cmax, Tmax, T1/2, and AUC0-last were calculated using a linear log trapezoid method.

Structure (SMILES)	IC50 [1] [µM]	inhibition of CYP enzyme CYP1A2 ([1]; microsomes)	Tumor volume (mm3) (Day 21) [2]	T/C (%) [2] [%]	TGI (%) [2] [%]	Tmax [3] [h]	half-life [3] [h]	AUC(0-t) [3] [µM·h]	Cmax [3] [µM]	inhibition of CYP enzyme CYP1A2 ([1]; human liver microsome)	IC50 ([1]; human liver microsome, read-out: inhibition of CYP enzyme CYP1A2) [µM]
C=CC(=O)N1[C@@H]2CC[C@H]1C[C@H](Nc1cc3c(Nc4ccc(Cl)c(Cl)c4F)ncnc3cc1OC)C2 [Example 38]	> 50	no inhibitory activity	55 ± 13	5.82	106.65	2	3.2	122	10.6		
C=CC(=O)N1CCC(Oc2cc3c(Nc4ccc(Cl)c(Cl)c4F)ncnc3cc2OC)CC1 [Poziotinib, reference compound]			57 ± 7	6.05	106.65	0.25	2.3	97.9	17.3	no inhibitory activity	> 50
